Structures can show the parent of a compound that is named as a salt.
What was measured:
Aurora A = target: T1, Aurora A (Homo sapiens, UniProt O14965); assay: Aurora A inhibitory action (33P-ATP kinase assay, Kemptide substrate); assay type: biochemical; conditions: 20 μM ATP, 30° C., 20 minutes
T1 construct: histidine tag (N); made in house; host or cells: Escherichia coli BL21-CodonPlus(DE3)-RIL
T1 sequence (O14965 1-403): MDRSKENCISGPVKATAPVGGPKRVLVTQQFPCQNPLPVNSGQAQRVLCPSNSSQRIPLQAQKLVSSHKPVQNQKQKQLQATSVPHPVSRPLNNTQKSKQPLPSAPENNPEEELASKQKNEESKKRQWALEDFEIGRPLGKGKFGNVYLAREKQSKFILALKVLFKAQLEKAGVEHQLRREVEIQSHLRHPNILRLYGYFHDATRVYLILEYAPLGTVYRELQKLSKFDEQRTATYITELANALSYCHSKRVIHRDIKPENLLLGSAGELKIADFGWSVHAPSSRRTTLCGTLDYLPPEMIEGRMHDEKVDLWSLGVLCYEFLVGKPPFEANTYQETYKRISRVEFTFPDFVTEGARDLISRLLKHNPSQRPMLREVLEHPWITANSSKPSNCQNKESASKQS
Description: Aurora A Inhibitory Action
(1) Purification of Aurora A
(§1) cDNA of Aurora A having histidine tag fused at the amino terminal was integrated into an expression vector, which was then highly expressed in Escherichia coli BL2 1-CodonPlus(DE3)-RIL cells. The Escherichia coli cells were recovered and solubilized, and then the histidine-tagged Aurora A protein was adsorbed onto a nickel chelate column and eluted from the column with imidazole. The active fraction was desalted with a desalting column to give a pure enzyme.
(2) Measurement of Activity of Aurora A
For measurement of the activity of Aurora A, the substrate used was Kemptide (Lys-Arg-Arg-Ala-Ser-Lys-Gly) (SEQ.ID.NO.: 1), a synthetic peptide purchased from Sigma-Aldrich, Inc. [Certificate of analysis (Upstate, Inc.)].
Reaction was conducted by a partial modification of a method by Upstate, Inc. [Kinase Profiler™ Assay Protocols]. The amount of the reaction liquid was 21.1 μL, and the composition of the reaction buffer (R2 buffer) was 50 mM Tris-hydrochloride buffer (pH 7.4)/15 mM magnesium acetate/0.2 mM ethylenediamine-N,N,N′,N′-tetraacetate (EDTA). To this, purified Aurora A, 100 μM of a substrate peptide, 20 μM of unlabeled adenosine triphosphate (ATP) and 0.5 μCi of [γ-^33P] labeled ATP (2,500 Ci/mmole or more) were added, and the mixture was reacted at 30° C. for 20 minutes. Then, 10 μL of 350 mM phosphate buffer was added to the reaction system to stop the reaction. The substrate peptide was adsorbed on a P81 paper filter 96-well plate and then washed with 130 mM phosphate buffer for several times. The radiation activity of the peptide was measured with a liquid scintillation counter. The [γ-^33P] labeled ATP was purchased from Amersham Biosciences Co., Ltd.
(§2) The compound to be tested was added to the reaction system such that a dilution series of the compound in dimethylsulfoxide was first prepared, and 1.1 μL of this solution was added. A control was provided by adding 1.1 μL of DMSO to the reaction system.

Aurora B = target: T2, Aurora B (Homo sapiens, UniProt Q96GD4); assay: Aurora B inhibitory action (33P-ATP kinase assay, Kemptide substrate); assay type: biochemical; conditions: 100 μM ATP, 30° C., 20 minutes
T2 construct: histidine tag (N); made in house; host or cells: Escherichia coli BL21-CodonPlus(DE3)-RIL
T2 sequence (Q96GD4 whole entry): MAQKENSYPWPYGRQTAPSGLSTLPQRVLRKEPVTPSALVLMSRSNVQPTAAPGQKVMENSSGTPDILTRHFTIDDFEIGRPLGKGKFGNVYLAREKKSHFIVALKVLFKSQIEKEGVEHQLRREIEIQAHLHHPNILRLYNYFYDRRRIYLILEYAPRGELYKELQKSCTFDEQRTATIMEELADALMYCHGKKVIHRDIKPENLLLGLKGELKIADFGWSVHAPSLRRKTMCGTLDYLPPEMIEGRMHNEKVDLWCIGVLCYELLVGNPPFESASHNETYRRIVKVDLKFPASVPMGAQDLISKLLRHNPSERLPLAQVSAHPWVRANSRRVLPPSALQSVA
Description: Aurora B Inhibitory Action
(1) Purification of Aurora B
as §1, with “of Aurora B having histidine” for “of Aurora A having histidine”, “Escherichia coli BL21-CodonPlus(DE3)-RIL cells. The” for “Escherichia coli BL2 1-CodonPlus(DE3)-RIL cells. The”
(2) Measurement of Activity of Aurora B
For measurement of the activity of Aurora B, the substrate used was Kemptide (Lys-Arg-Arg-Ala-Ser-Lys-Gly) (SEQ.ED.NO.: 1), a synthetic peptide purchased from Sigma-Aldrich, Inc. [Certificate of analysis (Upstate, Inc.)].
Reaction was conducted by a partial modification of the method of activity measurement for Aurora A. The amount of the reaction liquid was 21.1 μL, and the composition of the reaction buffer (R2 buffer) was 50 mM Tris-hydrochloride buffer (pH 7.4)/15 mM magnesium acetate/0.2 mM ethylenediamine-N,N,N′,N′-tetraacetate (EDTA). To this, purified Aurora B, 100 μM of a substrate peptide, 100 μM of unlabeled adenosine triphosphate (ATP) and 1 μCi of [γ-^33P] labeled ATP (2,500 Ci/mmole or more) were added, and the mixture was reacted at 30° C. for 20 minutes. Then, 10 μL of 350 mM phosphate buffer was added to the reaction system to stop the reaction. The substrate peptide was adsorbed on a P81 paper filter 96-well plate and then washed with 130 mM phosphate buffer for several times. The radiation activity of the peptide was measured with a liquid scintillation counter. The [γ-^33P] labeled ATP was purchased from Amersham Biosciences Co., Ltd.
as §2

Row | Compound | IC50 (Aurora A) [nM] | IC50 (Aurora B) [nM]
1 | N#Cc1cnc(Nc2cccc(CN3CCN(C(=O)c4cccc(Cl)c4F)CC3)n2)s1 [Example 43] | 1.1 | 460
2 | O=C(c1cccc(Cl)c1Cl)N1CCN(Cc2cncc(Nc3cc[nH]n3)n2)CC1 [Example 45, 6-((4-(2,3-dichlorobenzoyl)piperazin-1-yl)methyl)-N-1H-pyrazol-3-ylpyrazin-2-amine] | 2.5 | 4800
3 | O=C(c1cccc(C(F)(F)F)c1F)N1C[C@@H]2C[C@H]1CN2Cc1cncc(Nc2cc[nH]n2)n1 [Example 47, 6-(((lS,4S)-5-(2-fluoro-3-(trifluoromethyl)benzoyl)-2,5-diazabicyclo[2.2.1]hept-2-yl)methyl)-N-1H-pyrazol-3-ylpyrazin-2-amine] | 5.5 | 2200
4 | O=C(c1cccc(C(F)(F)F)c1F)N1C[C@H]2C[C@@H]1CN2Cc1cncc(Nc2cc[nH]n2)n1 [Example 48, 6-(((1R,4R)-5-(2-fluoro-3-(trifluoromethyl)benzoyl)-2,5-diazabicyclo[2.2.1]hept-2-yl)methyl)-N-1H-pyrazol-3-ylpyrazin-2-amine] | 2.8 | 2900
5 | O=C(c1cccc(Br)c1F)N1CCN(Cc2cncc(Nc3cc[nH]n3)n2)CC1 [Example 49, 6-((4-(3-bromo-2-fluorobenzoyl)piperazin-1-yl)methyl)-N-1H-pyrazol-3-ylpyrazin-2-amine trifluoroacetate] | 1.4 | 4400
6 | O=C(c1cccc(C(F)(F)F)c1Cl)N1CCN(Cc2cncc(Nc3cc[nH]n3)n2)CC1 [Example 51, 6-((4-(2-chloro-3-(trifluoromethyl)benzoyl)piperazin-1-yl)methyl)-N-1H-pyrazol-3-ylpyrazin-2-amine trifluoroacetate] | 0.98 | 930
7 | O=C(c1cccc(C(F)(F)F)c1F)N1CCN(Cc2cncc(Nc3cc[nH]n3)n2)CC(O)C1 (stereo not shown) [Example 55, 6-((4-(2-fluoro-3-(trifluoromethyl)benzoyl)-6-hydroxy-1,4-diazepan-1-yl)methyl)-N-1H-pyrazol-3-ylpyrazin-2-arnine] | 20 | 7400
8 | O=C(c1cccc(C(F)(F)F)c1F)N1CCN(Cc2cncc(Nc3ncns3)n2)CC1 [Example 57, 6-((4-(2-fluoro-(3-trifluoromethyl)benzoyl)piperazin-1-yl)methyl)-N-1,2,4-thiadiazol-5-ylpyrazin-2-amine] | 15 | 28000
9 | O=C(c1ccoc1)N1CCN(Cc2cccc(Nc3ncc(Cl)s3)n2)CC1 [Example 61, 6-((4-(3-furoyl)piperazin-1-yl)methyl)-N-(5-chlorothiazol-2-yl)pyridin-2-amine] | 17 | 530
10 | O=C(c1cccc(Cl)c1F)N1CCCN(Cc2cccc(Nc3nccs3)n2)CC1 [Example 63, 6-((4-(3-chloro-2-fluorobenzoyl)-1,4-diazepan-1-yl)methyl)-N-thiazol-2-ylpyridin-2-amine] | 1.3 | 570
11 | O=C(c1cnccn1)N1CCN(Cc2cccc(Nc3ncc(Cl)s3)n2)CC1 [Example 64, 6-((4-(pyrazin-2-ylcarbonyl)piperazin-1-yl)methyl)-N-(5-chlorothiazol-2-yl)pyridin-2-amine] | 110 | 2500

Further lines, results first:

Row | IC50 (Aurora A) [nM] | IC50 (Aurora B) [nM] | Compound
12 | 2.4 | 160 | O=C(c1ccsc1)N1CCN(Cc2cccc(Nc3ncc(Cl)s3)n2)CC1 [Example 65, 6-((4-(3-thienylcarbonyl)piperazin-1-yl)methyl)-N-(5-chlorothiazol-2-yl)pyridin-2-amine]
13 | 17 | 320 | O=C(c1nccs1)N1CCN(Cc2cccc(Nc3ncc(Cl)s3)n2)CC1 [Example 67, 6-((4-(thiazol-2-ylcarbonyl)piperazin-1-yl)methyl)-N-(5-chlorothiazol-2-yl)pyridin-2-amine]
14 | 32 | 920 | Cn1ccc(C(=O)N2CCN(Cc3cccc(Nc4ncc(Cl)s4)n3)CC2)n1 [Example 69, 6-((4-((1-methyl-1H-pyrazol-3-yl)carbonyl)piperazin-1-yl)methyl)-N-(5-chlorothiazol-2-yl)pyridin-2-amine]
15 | 2.4 | 96 | N#Cc1ccccc1C(=O)N1CCN(Cc2cccc(Nc3ncc(Cl)s3)n2)CC1 [Example 70, 6-((4-(2-cyanobenzoyl)piperazin-1-yl)methyl)-N-(5-chlorothiazol-2-yl)pyridin-2-amine]
16 | 27 | 170 | CC(=O)Nc1cccc(C(=O)N2CCN(Cc3cccc(Nc4ncc(Cl)s4)n3)CC2)c1 [Example 72, 6-((4-(3-(acetylamino)benzoyl)piperazin-1-yl)methyl)-N-(5-chlorothiazol-2-yl)pyridin-2-amine]
17 | 47 | 850 | CS(=O)(=O)c1cccc(C(=O)N2CCN(Cc3cccc(Nc4ncc(Cl)s4)n3)CC2)c1 [Example 74, 6-((4-(3-(methanesulfonyl)benzoyl)piperazin-1-yl)methyl)-N-(5-chlorothiazol-2-yl)pyridin-2-amine]
18 | 0.44 | 47 | O=C(c1cccc(Cl)c1Cl)N1CCN(Cc2cccc(Nc3ncc(Cl)s3)n2)CC1 [Example 76, 6-((4-(2,3-dichlorobenzoyl)piperazin-1-yl)methyl)-N-(5-chlorothiazol-2-yl)pyridin-2-amine]
19 | 2 | 240 | O=C(c1cccnc1F)N1CCN(Cc2cccc(Nc3ncc(Br)s3)n2)CC1 [Example 78, 6-((4-((2-fluoropyridin-3-yl)carbonyl)piperazin-1-yl)methyl)-N-(5-bromothiazol-2-yl)pyridin-2-amine]
20 | 26 | 2200 | O=C(c1ccnc(F)c1)N1CCN(Cc2cccc(Nc3ncc(Br)s3)n2)CC1 [Example 79, 6-((4-(2-fluoroisonicotinoyl)piperazin-1-yl)methyl)-N-(5-bromothiazol-2-yl)pyridin-2-amine]
21 | 0.33 | 300 | O=C(c1cccc(Cl)c1F)N1CCN(Cc2cc(Br)cc(Nc3nccs3)n2)CC1 [Example 81, 4-bromo-6-((4-(3-chloro-2-fluorobenzoyl)piperazin-1-yl)methyl)-N-thiazol-2-ylpyridin-2-amine]
22 | 0.51 | 210 | COC(=O)c1cc(CN2CCN(C(=O)c3cccc(Cl)c3F)CC2)nc(Nc2nccs2)c1 [Example 82, methyl 2-((4-(3-chloro-2-fluorobenzoyl)piperazin-1-yl)methyl)-6-(thiazol-2-ylamino)isonicotinate]
23 | 0.64 | 800 | O=C(O)c1cc(CN2CCN(C(=O)c3cccc(Cl)c3F)CC2)nc(Nc2nccs2)c1 [Example 83, 2-((4-(3-chloro-2-fluorobenzoyl)piperazin-1-yl)methyl)-6-(thiazol-2-ylamino)isonicotinic acid]

— patent US20080027042A1, “Novel Aminopyridine Derivatives Having Aurora a Selective Inhibitory Action” (priority 2004, published 2008)
